Assay results from US20250041429A1, “COMPOUND HAVING BTK PROTEIN DEGRADATION ACTIVITY, AND MEDICAL USES THEREOF” (UBIX THERAPEUTICS, INC., priority 2021, published 2025).

Target: T1, BTK protein (Homo sapiens, UniProt Q06187)
T1 construct: endogenous in cells; host or cells: TMD-8 cells
Test: Measurement of BTK protein degradation ability in TMD-8 cells (Western blotting)
Format: cell-based
Conditions: harvested after 24 hours; for BTK degradation (%) 1 nM: compound 1 nM; for BTK degradation (%) 10 nM: compound 10 nM; for BTK degradation (%) 100 nM: compound 100 nM
Summary of the method: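 TMD-8 cells (1×10^6/mL) were treated for 24 h with compound at 0.1, 1, 10 μM or 0.0001–0.1 μM, with DMSO as vehicle control. RIPA lysates were normalized by BCA assay. BTK was detected by Western blot with anti-BTK, using GAPDH or β-actin as loading controls, and imaged on LI-COR Odyssey.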

T1 sequence (Q06187 whole entry): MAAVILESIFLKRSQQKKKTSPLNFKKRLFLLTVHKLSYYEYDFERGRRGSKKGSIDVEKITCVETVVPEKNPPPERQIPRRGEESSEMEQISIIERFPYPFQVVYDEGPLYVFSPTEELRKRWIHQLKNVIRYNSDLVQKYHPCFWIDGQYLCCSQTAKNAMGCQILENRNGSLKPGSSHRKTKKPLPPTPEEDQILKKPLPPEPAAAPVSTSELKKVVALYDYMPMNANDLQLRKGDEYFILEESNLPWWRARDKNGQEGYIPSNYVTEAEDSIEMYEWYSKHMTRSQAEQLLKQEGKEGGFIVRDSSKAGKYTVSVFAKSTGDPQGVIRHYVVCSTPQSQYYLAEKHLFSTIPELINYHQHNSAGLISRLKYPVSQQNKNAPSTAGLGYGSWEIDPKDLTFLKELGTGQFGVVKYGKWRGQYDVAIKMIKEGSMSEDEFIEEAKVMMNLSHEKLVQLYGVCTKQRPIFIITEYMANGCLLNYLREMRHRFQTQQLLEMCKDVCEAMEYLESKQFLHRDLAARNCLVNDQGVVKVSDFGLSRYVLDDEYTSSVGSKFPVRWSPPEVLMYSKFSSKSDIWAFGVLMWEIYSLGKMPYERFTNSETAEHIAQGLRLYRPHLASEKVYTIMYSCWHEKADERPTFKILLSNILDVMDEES

SMILES	BTK degradation (%) 1 nM [%]	BTK degradation (%) 10 nM [%]	BTK degradation (%) 100 nM [%]
Cc1cc(-c2ccnc(Nc3cnn(C4CCN(CC5CCN(c6ccc7c(c6)C(=O)N(C6CCC(=O)NC6=O)C7=O)CC5)CC4)c3)n2)ccc1CNC(=O)c1cnn(C(C)C)c1 (stereo not drawn) [Example 35, N-(4-(2-((1-(1-((1-(2-(2,6-dioxopiperidin-3-yl)-1,3-dioxoisoindolin-5-yl)piperidin-4-yl)methyl)piperidin-4-yl)-1H-pyrazol-4-yl)amino)pyrimidin-4-yl)-2-methylbenzyl)-1-isopropyl-1H-pyrazole-4-carboxamide]	50.5	93.5	99.5
Cc1cc(-c2ccnc(Nc3cnn(C4CCN(CC5CN(c6ccc7c(c6)C(=O)N(C6CCC(=O)NC6=O)C7=O)C5)CC4)c3)n2)ccc1CNC(=O)c1cnn(C(C)C)c1 (stereo not drawn) [Example 36, N-(4-(2-((1-(1-((1-(2-(2,6-dioxopiperidin-3-yl)-1,3-dioxoisoindolin-5-yl)azetidin-3-yl)methyl)piperidin-4-yl)-1H-pyrazol-4-yl)amino)pyrimidin-4-yl)-2-methylbenzyl)-1-isopropyl-1H-pyrazole-4-carboxamide]	60	94	99
Cc1cc(-c2ccnc(Nc3cnn(C4CCN(CC5CCN(c6ccc7c(c6)C(=O)N(C6CCC(=O)NC6=O)C7=O)CC5)CC4)c3)n2)ccc1CNC(=O)c1cnn(C(C)(C)C)c1 (stereo not drawn) [Example 37, 1-(tert-butyl)-N-(4-(2-((1-(1-((1-(2-(2,6-dioxopiperidin-3-yl)-1,3-dioxoisoindolin-5-yl)piperidin-4-yl)methyl)piperidin-4-yl)-1H-pyrazol-4-yl)amino)pyrimidin-4-yl)-2-methylbenzyl)-1H-pyrazole-4-carboxamide]	54.5	92.5	99
Cc1cc(-c2ccnc(Nc3cnn(C4CCN(CC5CN(c6ccc7c(c6)C(=O)N(C6CCC(=O)NC6=O)C7=O)C5)CC4)c3)n2)ccc1CNC(=O)c1cnn(C(C)(C)C)c1 (stereo not drawn) [Example 38, 1-(tert-butyl)-N-(4-(2-((1-(1-((1-(2-(2,6-dioxopiperidin-3-yl)-1,3-dioxoisoindolin-5-yl)azetidin-3-yl)methyl)piperidin-4-yl)-1H-pyrazol-4-yl)amino)pyrimidin-4-yl)-2-methylbenzyl)-1H-pyrazole-4-carboxamide]	72.5	96	98.5
Cc1cc(-c2ccnc(Nc3cnn(C4CCN(CC5CCN(c6ccc7c(c6)C(=O)N(C6CCC(=O)NC6=O)C7=O)CC5)CC4)c3)n2)ccc1CNC(=O)c1cn(C(C)(C)C)nn1 (stereo not drawn) [Example 39, 1-(tert-butyl)-N-(4-(2-((1-(1-((1-(2-(2,6-dioxopiperidin-3-yl)-1,3-dioxoisoindolin-5-yl)piperidin-4-yl)methyl)piperidin-4-yl)-1H-pyrazol-4-yl)amino)pyrimidin-4-yl)-2-methylbenzyl)-1H-1,2,3-triazole-4-carboxamide]	65.5	93.5	98.5
Cc1cc(-c2ccnc(Nc3cnn(C4CCN(CC5CN(c6ccc7c(c6)C(=O)N(C6CCC(=O)NC6=O)C7=O)C5)CC4)c3)n2)ccc1CNC(=O)c1cn(C(C)(C)C)nn1 (stereo not drawn) [Example 40, 1-(tert-butyl)-N-(4-(2-((1-(1-((1-(2-(2,6-dioxopiperidin-3-yl)-1,3-dioxoisoindolin-5-yl)azetidin-3-yl)methyl)piperidin-4-yl)-1H-pyrazol-4-yl)amino)pyrimidin-4-yl)-2-methylbenzyl)-1H-1,2,3-triazole-4-carboxamide]	69.5	95.5	98
Cc1cc(-c2ccnc(Nc3ccc(C4CN(CC5CCN(c6ccc7c(c6)C(=O)N(C6CCC(=O)NC6=O)C7=O)CC5)C4)cc3)n2)ccc1CNC(=O)N1CC(OC(C)C)C1 (stereo not drawn) [Example 41, N-(4-(2-((4-(1-((1-(2-(2,6-dioxopiperidin-3-yl)-1,3-dioxoisoindolin-5-yl)piperidin-4-yl)methyl)azetidin-3-yl)phenyl)amino)pyrimidin-4-yl)-2-methylbenzyl)-3-isopropoxyazetidine-1-carboxamide]	81.5	100.0	100.0
Cc1cc(-c2ccnc(Nc3ccc(N4CCN(CC5CCN(c6cccc(OC7CCC(=O)NC7=O)c6)CC5)CC4)cc3)n2)ccc1CNC(=O)N1CC(OC(C)C)C1 (stereo not drawn) [Example 42, N-(4-(2-((4-(4-((1-(3-((2,6-dioxopiperidin-3-yl)oxy)phenyl)piperidin-4-yl)methyl)piperazin-1-yl)phenyl)amino)pyrimidin-4-yl)-2-methylbenzyl)-3-isopropoxyazetidine-1-carboxamide]	60.5	97.5	100.0
Cc1cc(-c2ccnc(Nc3ccc(N4CCN(CC5CCN(c6ccc(OC7CCC(=O)NC7=O)cc6)CC5)CC4)cc3)n2)ccc1CNC(=O)N1CC(OC(C)C)C1 (stereo not drawn) [Example 43, N-(4-(2-((4-(4-((1-(4-((2,6-dioxopiperidin-3-yl)oxy)phenyl)piperidin-4-yl)methyl)piperazin-1-yl)phenyl)amino)pyrimidin-4-yl)-2-methylbenzyl)-3-isopropoxyazetidine-1-carboxamide]	83.0	100.0	100.0
Cc1cc(-c2ccnc(Nc3ccc(C4CCN(CC5CN(c6ccc7c(c6)C(=O)N(C6CCC(=O)NC6=O)C7=O)C5)CC4)cc3)n2)ccc1CNC(=O)c1cnn(C(C)C)c1 (stereo not drawn) [Example 44, N-(4-(2-((4-(1-((1-(2-(2,6-dioxopiperidin-3-yl)-1,3-dioxoisoindolin-5-yl)azetidin-3-yl)methyl)piperidin-4-yl)phenyl)amino)pyrimidin-4-yl)-2-methylbenzyl)-1-isopropyl-1H-pyrazole-4-carboxamide]	66.0	95.0	99.0
Cc1cc(-c2ccnc(Nc3ccc(C4CCN(CC5CN(c6ccc7c(c6)C(=O)N(C6CCC(=O)NC6=O)C7=O)C5)CC4)cc3)n2)ccc1CNC(=O)c1cnn(C(C)(C)C)c1 (stereo not drawn) [Example 45, 1-(tert-butyl)-N-(4-(2-((4-(1-((1-(2-(2,6-dioxopiperidin-3-yl)-1,3-dioxoisoindolin-5-yl)azetidin-3-yl)methyl)piperidin-4-yl)phenyl)amino)pyrimidin-4-yl)-2-methylbenzyl)-1H-pyrazole-4-carboxamide]	45.5	89.5	98.0
Cc1cc(-c2ccnc(Nc3ccc(C4CCN(CC5CN(c6ccc7c(c6)C(=O)N(C6CCC(=O)NC6=O)C7=O)C5)CC4)cc3)n2)ccc1CNC(=O)c1cn(C(C)(C)C)nn1 (stereo not drawn) [Example 46, 1-(tert-butyl)-N-(4-(2-((4-(1-((1-(2-(2,6-dioxopiperidin-3-yl)-1,3-dioxoisoindolin-5-yl)azetidin-3-yl)methyl)piperidin-4-yl)phenyl)amino)pyrimidin-4-yl)-2-methylbenzyl)-1H-1,2,3-triazole-4-carboxamide]	46.5	91.0	98.0
Cc1cc(-c2ccnc(Nc3ccc(C4CCN(CC5CCN(c6ccc(OC7CCC(=O)NC7=O)cc6)CC5)CC4)cc3)n2)ccc1CNC(=O)N1CC(OC(C)C)C1 (stereo not drawn) [Example 47, N-(4-(2-((4-(1-((1-(4-((2,6-dioxopiperidin-3-yl)oxy)phenyl)piperidin-4-yl)methyl)piperidin-4-yl)phenyl)amino)pyrimidin-4-yl)-2-methylbenzyl)-3-isopropoxyazetidine-1-carboxamide]	22.5	93.5	99.5
Cc1cc(-c2ccnc(Nc3ccc(N4CCN(CC5CCN(c6ccc(OC7CCC(=O)NC7=O)cc6)CC5)CC4)cc3)n2)ccc1CNC(=O)c1cnn(C(C)C)c1 (stereo not drawn) [Example 48, N-(4-(2-((4-(4-((1-(4-((2,6-dioxopiperidin-3-yl)oxy)phenyl)piperidin-4-yl)methyl)piperazin-1-yl)phenyl)amino)pyrimidin-4-yl)-2-methylbenzyl)-1-isopropyl-1H-pyrazole-4-carboxamide]	53.5	94.5	99.0
Cc1cc(-c2ccnc(Nc3ccc(C4CCN(CC5CCN(c6ccc(OC7CCC(=O)NC7=O)cc6)CC5)CC4)cc3)n2)ccc1CNC(=O)c1cnn(C(C)C)c1 (stereo not drawn) [Example 49, N-(4-(2-((4-(1-((1-(4-((2,6-dioxopiperidin-3-yl)oxy)phenyl)piperidin-4-yl)methyl)piperidin-4-yl)phenyl)amino)pyrimidin-4-yl)-2-methylbenzyl)-1-isopropyl-1H-pyrazole-4-carboxamide]	23.0	87.0	90.5
